Legend:
[1] = AZD6280; ref parallel multiple ascending dose study; cited from earlier work
GABAA α3β3γ2 = target: GABAA α3β3γ2; set-up: method as in Christian et al 2015; conditions: recombinant Sf9 membranes α3β3γ2; [3H]flunitrazepam; mean (SD); ref Christian et al 2015; read-out: Affinity in vitro at BZ binding site (Ki) α3; cited from earlier work
Melatonin MT2 = Melatonin MT2 (Homo sapiens, UniProt P49286); assay: Secondary receptor binding profile
GABAA α2β3γ2 = target: GABAA α2β3γ2; set-up: method as in Christian et al 2015; conditions: recombinant Sf9 membranes α2β3γ2; [3H]flunitrazepam; mean (SD); ref Christian et al 2015; read-out: Affinity in vitro at BZ binding site (Ki) α2; cited from earlier work
Melatonin MT1 = Melatonin MT1 (Homo sapiens, UniProt P48039); assay: Secondary receptor binding profile
Chain of Melatonin MT1 (P48039 whole entry): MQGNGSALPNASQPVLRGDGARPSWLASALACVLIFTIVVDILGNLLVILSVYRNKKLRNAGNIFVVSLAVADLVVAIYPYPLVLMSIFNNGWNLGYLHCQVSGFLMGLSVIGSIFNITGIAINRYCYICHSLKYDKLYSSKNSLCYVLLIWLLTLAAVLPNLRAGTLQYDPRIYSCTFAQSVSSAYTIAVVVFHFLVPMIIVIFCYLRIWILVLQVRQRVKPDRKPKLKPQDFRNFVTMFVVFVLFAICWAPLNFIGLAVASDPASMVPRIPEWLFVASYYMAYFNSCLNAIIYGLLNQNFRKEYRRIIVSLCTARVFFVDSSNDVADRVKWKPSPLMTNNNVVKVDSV

Chain of Melatonin MT2 (P49286 whole entry): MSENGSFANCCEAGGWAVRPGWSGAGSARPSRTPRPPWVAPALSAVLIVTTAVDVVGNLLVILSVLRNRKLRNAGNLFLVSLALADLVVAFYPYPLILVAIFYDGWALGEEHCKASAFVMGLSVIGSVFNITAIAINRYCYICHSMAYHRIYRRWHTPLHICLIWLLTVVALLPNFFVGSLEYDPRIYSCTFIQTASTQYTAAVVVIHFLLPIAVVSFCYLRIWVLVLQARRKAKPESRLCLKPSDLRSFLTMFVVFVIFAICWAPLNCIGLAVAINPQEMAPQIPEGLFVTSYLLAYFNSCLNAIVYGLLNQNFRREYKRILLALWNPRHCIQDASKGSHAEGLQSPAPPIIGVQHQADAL

Q: Which results are given for `CCCNC(=O)c1nnc2c(-c3cc(OC)ccc3OC)cccc2c1N` [AZD6280]?
A: maximum tolerated dose (MTD) [1]: 40 mg; Ki (GABAA α3β3γ2): 31 ± 17 nM; IC50 (Melatonin MT2): 664 nM; Ki (GABAA α2β3γ2): 21 ± 5 nM; IC50 (Melatonin MT1): 116 nM

Source: PMC5263201, “GABAA receptor occupancy by subtype selective GABAAα2,3 modulators: PET studies in humans” (Psychopharmacology, 2016)
